Reference: ChEMBL document CHEMBL5236619, “Design and Optimization of 1H-1,2,3-Triazole-4-carboxamides as Novel, Potent, and Selective Inverse Agonists and Antagonists of PXR” (J Med Chem, 2022)

Columns and labels:
[1] = target: T1, Nuclear receptor subfamily 1 group I member 2 (Homo sapiens, UniProt O75469); assay: Agonist activity at human PXR in human HepG2 cells co-expressing luciferase gene under control of CYP3A4 promoter assessed as transcriptional activation incubated for 24 hrs by luminescence based analysis
T1 sequence (O75469 whole entry): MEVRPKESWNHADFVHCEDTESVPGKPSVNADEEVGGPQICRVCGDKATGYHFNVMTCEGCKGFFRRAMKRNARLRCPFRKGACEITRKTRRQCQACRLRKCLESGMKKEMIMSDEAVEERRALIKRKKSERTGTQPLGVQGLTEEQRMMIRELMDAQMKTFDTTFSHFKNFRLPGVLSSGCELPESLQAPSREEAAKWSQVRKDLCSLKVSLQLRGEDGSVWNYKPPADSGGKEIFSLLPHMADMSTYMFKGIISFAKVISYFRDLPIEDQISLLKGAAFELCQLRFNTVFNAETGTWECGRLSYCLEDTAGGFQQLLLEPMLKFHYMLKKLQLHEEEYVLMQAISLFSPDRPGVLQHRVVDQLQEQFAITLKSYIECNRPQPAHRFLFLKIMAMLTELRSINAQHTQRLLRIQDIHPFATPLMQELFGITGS

[2] = target: T2, PXR (NR1I2) ligand binding domain (Homo sapiens, UniProt O75469); assay: Inhibition of BODIPY FL vindoline binding to recombinant human GST-tagged PXR LBD (111 to 434 residues) expressed in baculovirus infected insect cells at 10 uM incubated for 1 mins under shaking condition followed by 60 mins under dark condition by TR-FRET assay relative to control; details: probe BODIPY FL vindoline, time 61 min
T2 sequence (O75469 whole entry): T1 sequence (O75469 whole entry)

[3] = target: T1, Nuclear receptor subfamily 1 group I member 2; assay: Agonist activity at human PXR in human HepG2 cells co-expressing luciferase gene under control of CYP3A4 promoter assessed as transcriptional activation at 10 uM incubated for 24 hrs by luminescence based analysis relative to control
[4] = target: T1, Nuclear receptor subfamily 1 group I member 2; assay: Inverse agonist activity at human PXR in human HepG2 cells co-expressing luciferase gene under control of CYP3A4 promoter assessed as inhibition in receptor basal activity at 30 uM incubated for 24 hrs by luminescence based analysis; details: hepg2, 24 h
[5] = target: T1, Nuclear receptor subfamily 1 group I member 2; assay: Antagonist activity at human PXR in human HepG2 cells co-expressing luciferase gene under control of CYP3A4 promoter assessed as inhibition in rifampicin-induced receptor activation at 30 uM incubated for 24 hrs by luminescence based analysis; type: cell-based; details: hepg2, 24 h
[6] = target: T1, Nuclear receptor subfamily 1 group I member 2; assay: Agonist activity at human PXR in human HepG2 cells co-expressing luciferase gene under control of CYP3A4 promoter assessed as transcriptional activation at 30 uM incubated for 24 hrs by luminescence based analysis; type: cell-based; details: hepg2, 24 h
[7] = target: T3, PXR (NR1I2) (Homo sapiens, UniProt O75469); assay: Inverse agonist activity at human PXR in human HepG2 cells co-expressing luciferase gene under control of CYP3A4 promoter assessed as inhibition in receptor basal activity at 10 uM incubated for 24 hrs by luminescence based analysis relative to control; type: cell-based
T3 sequence (O75469 whole entry): T1 sequence (O75469 whole entry)

[8] = target: T1, Nuclear receptor subfamily 1 group I member 2; assay: Inverse agonist activity at human PXR in human HepG2 cells co-expressing luciferase gene under control of CYP3A4 promoter assessed as inhibition of receptor basal activity incubated for 24 hrs by luminescence based analysis; type: cell-based
[9] = target: T3, PXR (NR1I2); assay: Antagonist activity at human PXR in human HepG2 cells co-expressing luciferase gene under control of CYP3A4 promoter assessed as inhibition in rifampicin-induced receptor activation at 10 uM incubated for 24 hrs by luminescence based analysis relative to control; type: cell-based

SMILES | EC50 [1] | inhibition at 1.017 h, 10 µM [2] | activity at 24 h, 10 µM [3] | INH [4] | inhibition (INH) [5] | Activity [6] | inhibition at 24 h, 10 µM [7] | IC50 [8] | inhibition at 24 h, 10 µM [9]
COc1ccc(OC)c(-n2nnc(C(=O)Nc3ccc(NC(C)=O)c(C(C)(C)C)c3)c2C)c1 | 2000 nM | 65% | 50% | Not Active | Not Active | – | – | – | –
CCOc1ccc(C(C)(C)C)cc1NC(=O)c1nnn(-c2cc(OC)ccc2OC)c1C | – | 73% | – | – | – | Not Active | 118% | – | –
COc1ccc(OC)c(-n2nnc(C(=O)Nc3cc(C(C)(C)C)ccc3OCCN(C)C)c2C)c1 | – | 87% | – | – | – | Not Active | – | 1800 nM | –
CCCCOc1ccc(C(C)(C)C)cc1NC(=O)c1nnn(-c2cc(OC)ccc2C)c1C | 1660 nM | 10% | 16% | Not Active | Not Active | – | – | – | –
COc1ccc(OC)c(-n2nnc(C(=O)Nc3cc(B4OC(C)(C)C(C)(C)O4)cc(C(C)(C)C)c3)c2C)c1 | – | 67% | – | – | – | Not Active | 138% | – | 104%
CCCCOc1ccc(C(C)(C)C)cc1NC(=O)c1nnn(-c2cc(OC)ccc2OC)c1C | – | 90% | – | – | – | Not Active | 89% | – | –
CNc1cc(NC(=O)c2nnn(-c3cc(OC)ccc3OC)c2C)cc(C(C)(C)C)c1 | – | – | – | – | – | Not Active | – | – | 109%
CCCOc1ccc(C(C)(C)C)cc1NC(=O)c1nnn(-c2cc(OC)ccc2OC)c1C | – | 79% | – | – | – | Not Active | 114% | – | –
CCCC(C)Oc1ccc(C(C)(C)C)cc1NC(=O)c1nnn(-c2cc(OC)ccc2OC)c1C (racemic) | – | 90% | – | – | – | Not Active | 117% | – | –
